Data published in publication PMC9219824, “Antiplasmodial Cyclodecapeptides from Tyrothricin Share a Target with Chloroquine” (Antibiotics, 2022).
Like-named read-outs stand apart in the source and are kept apart here. Square brackets hold non-standard residues; d marks the D form. Peptide text beside a SMILES is read from it. Orn = NCCC[C@H](N)C(=O)O

Columns and labels:
[1] = tested on: CQR P. falciparum Dd2; test: microbe, parasite or virus in culture; assay type: cell-based, Plasmodium falciparum; settings: for IC50: read-out: IC50, CQR P. falciparum Dd2; for Resistance Index IC50Dd2/IC503D7: first value of cell; for Resistance Index IC50Dd2/IC50D10: second value of cell
Procedure: (§1) The antimalarial assays were carried out according to the method of Nkhoma et al.. […] On the day of the assay, the parasitemia was determined following observation by light microscopy after Giemsa staining of a thin blood smear from the culture. The cultures at young trophozoite stage were diluted to 2% parasitemia and 2% hematocrit by addition of fresh RPMI medium and uninfected erythrocytes. This culture suspension was distributed in 96-well culture plates at 90 µL/well. […] Peptide solvent and medium (10 µL/well) was used as sterility control and in growth control and 10 μL 1.0 mM GS was used as positive control. Assays were carried out in at least three biological repeats each consisting of three technical repeats to ascertain reproducibility.
(§2) The culture suspension was frozen away at −20 °C until determination of the residual lactate dehydrogenase activity of the parasites by the Malstat assay, as adapted from Gomez et al..
(§3) For the Malstat assay, the plates were transferred to −80 °C for 1 h following overnight storage at −20 °C to ensure that all the suspensions in each well of the 96-well plate were frozen. The plates were then thawed at room temperature. The Malstat reagent consisted of 200 μL Triton X-100, 2 g L-lactic acid (substrate), 0.66 g Tris-HCl buffer and 0.011 g of 3-acetylpyridine adenine dinucleotide (APAD) (coenzyme for parasite lactate dehydrogenase) in 100 mL analytical quality water set to a pH of 9.0 [93]. […] A 15 µL aliquot of the thawed and properly mixed suspension from the assay plates was added to 100 µL of the Malstat reagent, followed by addition of 25 µL of the NBT/PES solution. The reaction mixtures were then incubated at room temperature in the dark for 30 min followed by spectrophotometric measurement of the absorbance of the reduced APAD at 620 nm using a Model 680 Microplate reader from BioRad.
(§4) The data obtained from spectrophotometric measurement of the plates following the lactate dehydrogenase (Malstat) assay were converted to percentage growth inhibition using the data analysis method described by Rautenbach et al.. The background was obtained from control wells in which the parasites were killed with 100 µM GS while total growth was from the wells that were not submitted to peptides. […] The percentage COS-1 cell death (CellTiter Blue™ assay) was similarly calculated from absorbance values.

[2] = tested on: CQS P. falciparum 3D7; test: microbe, parasite or virus in culture; assay type: cell-based, Plasmodium falciparum
Procedure: as §1, §2, §3, §4

[3] = tested on: CQI P. falciparum D10; test: microbe, parasite or virus in culture; assay type: cell-based, Plasmodium falciparum; settings: for IC50: 48 h, Malstat, ± SEM
Procedure: The antimalarial assays were carried out according to the method of Nkhoma et al.. Once the cultures reached a parasitemia of 5–15%, they were synchronized four days prior to the day of the assay as described above which allowed the cultures to recover from the stress caused by the D-sorbitol. On the day of the assay, the parasitemia was determined following observation by light microscopy after Giemsa staining of a thin blood smear from the culture. The cultures at young trophozoite stage were diluted to 2% parasitemia and 2% hematocrit by addition of fresh RPMI medium and uninfected erythrocytes. This culture suspension was distributed in 96-well culture plates at 90 µL/well. The peptides and CQ diluted in culture medium lacking albumax II were added to the cultures in triplicate at 10 µL/well to give a total volume of 100 µL/well. Peptide solvent and medium (10 µL/well) was used as sterility control and in growth control and 10 μL 1.0 mM GS was used as positive control. Assays were carried out in at least three biological repeats each consisting of three technical repeats to ascertain reproducibility.
For the activity determination against parasites, plates were incubated at 37 °C for 48 h under an atmosphere of 3% CO2, 4% O2 and 93% N2. The culture suspension was frozen away at −20 °C until determination of the residual lactate dehydrogenase activity of the parasites by the Malstat assay, as adapted from Gomez et al..
For the Malstat assay, the plates were transferred to −80 °C for 1 h following overnight storage at −20 °C to ensure that all the suspensions in each well of the 96-well plate were frozen. The plates were then thawed at room temperature. The Malstat reagent consisted of 200 μL Triton X-100, 2 g L-lactic acid (substrate), 0.66 g Tris-HCl buffer and 0.011 g of 3-acetylpyridine adenine dinucleotide (APAD) (coenzyme for parasite lactate dehydrogenase) in 100 mL analytical quality water set to a pH of 9.0 [93]. The lactate dehydrogenase reaction was initiated by addition of a second solution, NBT/PES solution composed of 1.96 mM nitro blue tetrazolium (NBT) and 0.24 mM phenazine ethosulfate (PES) which was always protected from light. A 15 µL aliquot of the thawed and properly mixed suspension from the assay plates was added to 100 µL of the Malstat reagent, followed by addition of 25 µL of the NBT/PES solution. The reaction mixtures were then incubated at room temperature in the dark for 30 min followed by spectrophotometric measurement of the absorbance of the reduced APAD at 620 nm using a Model 680 Microplate reader from BioRad.
(§5) The data obtained from spectrophotometric measurement of the plates following the lactate dehydrogenase (Malstat) assay were converted to percentage growth inhibition using the data analysis method described by Rautenbach et al.. The background was obtained from control wells in which the parasites were killed with 100 µM GS while total growth was from the wells that were not submitted to peptides. The background for the hemolysis evaluation was from wells in which the uninfected erythrocytes were lysed using 100 µM GS while growth control was from the wells with uninfected erythrocytes that received no peptides. The percentage COS-1 cell death (CellTiter Blue™ assay) was similarly calculated from absorbance values. All the dose–response assay data were evaluated using GraphPad Prism 4.03 (GraphPad Software, San Diego, CA, USA) followed by non-linear regression and sigmoidal curves were fitted (having variable slope and a constant difference of 100 between the top and bottom plateau). Following calculation of the 50% P. falciparum inhibitory concentration (IC50), 50% hemolytic concentration (HC50) and 50% lethal concentration (LC50) for COS-1 cells.

[4] = Toxicity to COS-1 cells, CellTiter Blue viability; assay type: cell-based; settings: 24 h, resazurin (CellTiter Blue), read-out: Toxicity LC50, COS Cells
Procedure: COS-1 cells were cultured in DMEM containing 0.9 g/L glucose, 0.12% NaHCO3, 10% fetal calf serum and 1% penicillin–streptomycin at 37 °C and under an atmosphere of 5% CO2 [95]. Twenty hours before the assay, the cells were transferred to 96-well plates at a density of 1.5 × 10^4 cells/well. The peptides from the dilution series were added to each well and incubated for 24 h. The cell viability was measured by adding 20 μL/well resazurin reagent (CellTiter Blue™), followed by four hours incubation at room temperature in the dark and measurement of the absorbance at 560 nm and 600 nm in the BioRad microplate reader.
as §5

[5] = tested on: human erythrocytes; test: Hemolytic activity; assay type: cell-based; settings: 2% hematocrit, 1 h at 37 °C, ± SEM
Procedure: To determine the hemolytic activity of the peptides, the duplicate 96-well plates with samples added to 90 μL 2% hematocrit per well were incubated for one hour at 37 °C and centrifuged using a swing-out rotor at 200× g for 3 min. The supernatant was diluted 1:8 in analytical quality water in separate 96-well plates and after mixing, the absorbance of the suspension was determined at 405 nm.
as §5

Question: Which IC50 ([1]; Plasmodium falciparum, DD2, 48 h) does the source give for CCN(CC)CCCC(C)Nc1ccnc2cc(Cl)ccc12 (stereo not shown) [CQ, chloroquine] here?
Answer: The IC50 was 277 ± 18 nM.

Question: And the “Resistance Index IC50Dd2/IC503D7” value [1]?
Answer: The value was 16.

Question: What about the “Resistance Index IC50Dd2/IC50D10” value [1] of the same compound?
Answer: The value was 7.

Question: And the IC50 ([2]; Plasmodium falciparum, 3D7, 48 h, read-out: IC50, CQS P. falciparum 3D7)?
Answer: Its IC50 is 17 ± 5 nM.

Question: And the IC50 ([3]; Plasmodium falciparum, D10)?
Answer: Its IC50 is 40 ± 3 nM.

Question: With CC(C)C[C@@H]1NC(=O)[C@H](CCCN)NC(=O)[C@H](C(C)C)NC(=O)[C@@H]2CCCN2C(=O)[C@@H](Cc2ccccc2)NC(=O)[C@H](CC(C)C)NC(=O)[C@H](CCCN)NC(=O)[C@H](C(C)C)NC(=O)[C@@H]2CCCN2C(=O)[C@@H](Cc2ccccc2)NC1=O [GS, gramicidin S, reference compound] (cyclo(V[Orn]L[dF]PV[Orn]L[dF]P)) as the compound, how does the IC50 ([1]; 48 h, Malstat, ± SEM) read?
Answer: The IC50 was 1860 ± 160 nM.

Question: What about the “Resistance Index IC50Dd2/IC503D7” value [1] of the same compound?
Answer: The value was 1.3; 1.3.

Question: What about the “Resistance Index IC50Dd2/IC50D10” value [1] of the same compound?
Answer: Its value is 1.3; 1.3.

Question: And the IC50 ([2]; CQS 3D7, 48 h)?
Answer: The IC50 was 1450 ± 151 nM.

Question: And the IC50 [3]?
Answer: Its IC50 is 1400 ± 86 nM.

Question: What about the “Selectivity Index IC50D10/IC50 (COS cells)” value ([3]; second value of cell) of the same compound?
Answer: The value was 6.

Question: And the CC50 [4]?
Answer: Its CC50 is 9000 nM.

Question: What about the “HC50, Erythrocytes” value [5] of the same compound?
Answer: The value was 6.2 ± 0.4 (9) μM.
